Measured values published in patent US5436238A, “Halichondrins and related compounds” (President and Fellows of Harvard College, priority 1993, dated 1995).

Experiments:
NIH:OVCAR-3 cells = test: In vitro growth inhibition, NIH:OVCAR-3 ovarian carcinoma cells; assay type: cell-based; settings: NIH:OVCAR-3, human ovarian carcinoma
Protocol: (§1) Synthetic halichondrin B I was tested in growth inhibition assays against several different tumor cell lines to obtain IC50 values. For comparison, the National Cancer Instititute reported growth inhibitory effects of natural halichondrin B against L1210 murine leukemia cells at IC50 =0.3 nM [J. Biol. Chem. 266:15882-15889 (1991)] and Hirata and Uemura reported IC50 =0.08 nM against B-16 murine melanoma cells [Pure Appl. Chem. 58:701-710 (1986)]. Both references are hereby incorporated in their entirety.

MCF-7 cells = test: In vitro growth inhibition, MCF-7 breast carcinoma cells; assay type: cell-based; settings: MCF-7, human breast carcinoma
Protocol: as §1

HL-60 cells = test: In vitro growth inhibition, HL-60 monocytic leukemia cells; assay type: cell-based; settings: HL-60, human monocytic leukemia
Protocol: as §1

[1] = test system: subcutaneous LOX human melanoma tumors; test: In vivo anti-tumor effect on subcutaneous LOX human melanoma tumors in nude mice
Protocol: Mice received 1×10^6 LOX cells via s.c. injection on day 0, with complete injection randomization across sexes and treatment groups. On days 3-7 and 10-14, male and female experimental mice received 25 μg/kg of synthetic halichondrin B 1 via i.p. injection in saline; controls received saline alone.

SK-OV-3 cells = test: In vitro growth inhibition, SK-OV-3 ovarian carcinoma cells; assay type: cell-based; settings: SK-OV-3, human ovarian carcinoma
Protocol: as §1

[2] = test system: B-16 murine melanoma cells; settings: Pure Appl. Chem. 58:701-710 (1986), read-out: IC50 against B-16 cells; cited from earlier work
Caov-3 cells = test: In vitro growth inhibition, Caov-3 ovarian carcinoma cells; assay type: cell-based; settings: Caov-3, human ovarian carcinoma
Protocol: as §1

OVCA 433 cells = test: In vitro growth inhibition, OVCA 433 ovarian carcinoma cells; assay type: cell-based; settings: OVCA 433, human ovarian carcinoma
Protocol: as §1

MG-63 cells = test: In vitro growth inhibition, MG-63 osteosarcoma cells; assay type: cell-based; settings: MG-63, human osteosarcoma
Protocol: as §1

LOX human melanoma cells = test: In vitro growth inhibition, LOX melanoma cells; assay type: cell-based; settings: Table 1, LOX, synthetic halichondrin B
Protocol: as §1
In addition, several synthetic halichondrin-related compounds were tested. […] For the structures of compounds 13-16, see FIG. 3.

HT-29 cells = test: In vitro growth inhibition, HT-29 colon carcinoma cells; assay type: cell-based; settings: HT-29, human colon carcinoma
Protocol: as §1

DK-l cells = test: In vitro growth inhibition, DK-l ras-transforming fibroblasts; assay type: cell-based; settings: human ras-transforming fibroblasts
Protocol: as §1

[3] = test system: L1210 murine leukemia cells; settings: natural halichondrin B, J. Biol. Chem. 266:15882-15889 (1991), read-out: growth inhibitory effects, IC50; cited from earlier work

## C=C1C[C@@H]2CC[C@@]34C[C@H]5O[C@H]6[C@@H](O3)[C@H]3O[C@H](CC[C@@H]3O[C@H]6[C@H]5O4)CC(=O)O[C@@H]3[C@@H](C)[C@@H]4O[C@@H]5C[C@]6(C[C@@H]7O[C@]8(C[C@H](C)[C@@H]9O[C@H]([C@@H](O)C[C@@H](O)CO)C[C@@H]9O8)C[C@H](C)[C@@H]7O6)O[C@@H]5C[C@@H]4O[C@H]3C[C@H]3O[C@@H](CC[C@@H]1O2)C[C@@H](C)C3=C [halichondrin B]
NIH:OVCAR-3 cells
  IC50: 0.06 nM
MCF-7 cells
  IC50: 0.2 nM
HL-60 cells
  IC50: 0.12 nM
[1]; 25 μg/kg i.p. in saline, days 3-7 and 10-14, both sexes
  tumor growth: prevented tumor growth almost completely in both sexes
[1]; 25 μg/kg i.p., days 3-7 and 10-14, after initial development into visible but very small tumors
  tumor growth after initial development period: failed to grow after an initial period of development into visible but very small tumors
[1]; 25 μg/kg i.p., after the initial development period
  tumor regression: actually regressed
SK-OV-3 cells
  IC50: 0.12 nM
[2]
  IC50: 0.08 nM
Caov-3 cells
  IC50: 0.25 nM
OVCA 433 cells
  IC50: 0.16 nM
MG-63 cells
  IC50: 0.13 nM
LOX human melanoma cells
  IC50: 0.08 nM
HT-29 cells
  IC50: 0.19 nM
DK-l cells
  IC50: 0.18 nM
[3]
  IC50: 0.3 nM
